Data taken from patent US10294202B2, “Pyrrolidinones as herbicides” (FMC Corporation, priority 2013, dated 2019).

Assays:
pigweed = test: Test A pre-/postemergence herbicide test; format: in vivo, Amaranthus retroflexus
Outline: (§1)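 Visual 0–100 ratings (100 = complete control) made about 10 days after treatment, greenhouse-held plants compared with untreated controls. Treatments: postemergence sprays on one- to two-leaf plants (2–10 cm tall) and preemergence directed soil sprays after planting in loam–sand, chemicals formulated in non-phytotoxic solvent containing surfactant.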

barnyardgrass [1] = test: Test B flooded paddy test; format: in vivo, Echinochloa crus-galli; conditions: 500 g ai/ha, Flood; scale of 0 to 100 where 0 is no effect and 100 is complete control
Outline: (§2)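 First, plants reach the 2-leaf stage; next, pots are flooded to 3 cm and compound is delivered into the water; finally, after 13 to 15 greenhouse days at constant depth, injury is graded visually from 0 to 100 against controls.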

ducksalad = test: Test B flooded paddy test; format: in vivo, Heteranthera limosa; conditions: 500 g ai/ha, Flood; scale of 0 to 100 where 0 is no effect and 100 is complete control
Outline: as §2

rice = test: Test B flooded paddy test; format: in vivo, Oryza sativa; conditions: 500 g ai/ha, Flood; scale of 0 to 100 where 0 is no effect and 100 is complete control
Outline: as §2

corn = test: Test A pre-/postemergence herbicide test; format: in vivo, Zea mays; conditions: Postemergence
Outline: as §1

kochia = test: Test A pre-/postemergence herbicide test; format: in vivo, Kochia scoparia
Outline: as §1

galium = test: Test A postemergence herbicide test; format: in vivo, Galium aparine
Outline: (§3)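 Blackgrass and galium grown in pots of loam soil–sand blend, treated postemergence at 2–10 cm height, one- to two-leaf stage. Plants kept in greenhouse ~10 days, then visually rated for injury against untreated controls on a 0–100 scale (0 no effect, 100 complete control).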

ryegrass, Italian = test: Test A pre-/postemergence herbicide test; format: in vivo, Lolium multiflorum
Outline: as §1

wheat = test: Test A pre-/postemergence herbicide test; format: in vivo, Triticum aestivum; conditions: Postemergence
Outline: as §1

barnyardgrass [2] = test: Test A pre-/postemergence herbicide test; format: in vivo, Echinochloa crus-galli
Outline: as §1

ragweed = test: Test A pre-/postemergence herbicide test; format: in vivo, Ambrosia elatior
Outline: as §1

giant foxtail = test: Test A pre-/postemergence herbicide test; format: in vivo, Setaria faberii
Outline: as §1

blackgrass = test: Test A postemergence herbicide test; format: in vivo, Alopecurus myosuroides
Outline: as §3

sedge, umbrella = test: Test B flooded paddy test; format: in vivo, Cyperus difformis; conditions: 500 g ai/ha, Flood; scale of 0 to 100 where 0 is no effect and 100 is complete control
Outline: as §2

[3] = Postemergence, 125 g ai/ha, visual rating on 0 to 100 scale (0 no effect, 100 complete control), approx. 10 days
[4] = Postemergence, 500 g ai/ha, 0 to 100 scale (0 no effect, 100 complete control)
[5] = Preemergence, 125 g ai/ha, 0 to 100 scale where 0 is no effect and 100 is complete control
[6] = preemergence, 500 g ai/ha, 0 to 100 scale, 0 is no effect and 100 is complete control
[7] = 125 g ai/ha, visual rating on 0 to 100 scale (0 no effect, 100 complete control), approx. 10 days
[8] = 500 g ai/ha, 0 to 100 scale (0 no effect, 100 complete control)
[9] = 125 g ai/ha, visual rating, 0 to 100 scale, 0 no effect, 100 complete control, approximately 10 days, preemergence
[10] = Postemergence, 125 g ai/ha, 0 to 100 scale, 0 no effect, 100 complete control
[11] = preemergence, 500 g ai/ha, 0 to 100 scale
[12] = 125 g ai/ha, 0 to 100 scale, 0 no effect, 100 complete control
[13] = preemergence, 500 g ai/ha, 0 to 100 scale (0 no effect, 100 complete control)
[14] = Postemergence, 125 g ai/ha, 0 to 100 scale, 0 is no effect, 100 is complete control
[15] = 125 g ai/ha, 0 to 100 scale, 0 is no effect, 100 is complete control

O=C1NCC(c2cc3ccccc3s2)C1C(=O)Nc1ccccc1C(F)(F)F (stereo not drawn) [Compound 297]
70: Plant response rating, Foxtail, Giant (giant foxtail; [6])
10: Plant response rating, Blackgrass (blackgrass; [8])
50: Plant response rating, Barnyardgrass (barnyardgrass [2]; [6])
0: Plant response rating, Pigweed (pigweed; [3]) | Plant response rating, Pigweed (pigweed; [4]) | Plant response rating, Pigweed (pigweed; [5]) | Plant response rating, Pigweed (pigweed; [6]) | Plant response rating, Barnyardgrass (barnyardgrass [1]) | Plant response rating, Ducksalad (ducksalad) | Plant response rating, Rice (rice) | Plant response rating, Corn (corn; [7]) | Plant response rating, Corn (corn; [8]) | Plant response rating, Kochia (kochia; [3]) | Plant response rating, Kochia (kochia; [4]) | Plant response rating, Kochia (kochia; [5]) | Plant response rating, Kochia (kochia; [6]) | Plant response rating, Galium (galium; [7]) | Plant response rating, Galium (galium; [8]) | Plant response rating, Ryegrass, Italian (ryegrass, Italian; [3]) | Plant response rating, Ryegrass, Italian (ryegrass, Italian; [4]) | Plant response rating, Ryegrass, Italian (ryegrass, Italian; [5]) | Ryegrass, Italian plant response rating (ryegrass, Italian; Preemergence, 500 g ai/ha, visual rating on 0 to 100 scale (0 no effect, 100 complete control)) | Plant response rating, Wheat (wheat; [7]) | Plant response rating, Wheat (wheat; [8]) | Plant response rating, Barnyardgrass (barnyardgrass [2]; [3]) | Plant response rating, Barnyardgrass (barnyardgrass [2]; [4]) | Plant response rating, Barnyardgrass (barnyardgrass [2]; [5]) | Plant response rating, Ragweed (ragweed; [3]) | Plant response rating, Ragweed (ragweed; [4]) | Plant response rating, Ragweed (ragweed; [5]) | Plant response rating, Ragweed (ragweed; [6]) | Plant response rating, Foxtail, Giant (giant foxtail; [3]) | Plant response rating, Foxtail, Giant (giant foxtail; [4]) | Plant response rating, Blackgrass (blackgrass; [7]) | Plant response rating, Sedge, Umbrella (sedge, umbrella)
30: Plant response rating, Foxtail, Giant (giant foxtail; [5])

COc1cc(C2CNC(=O)C2C(=O)Nc2ccccc2Cl)ccc1F (racemic) [Compound 133]
0: Plant response rating, Pigweed (pigweed; [9]) | Plant response rating, Pigweed (pigweed; [10]) | Pigweed plant response rating (0 to 100 scale, 0 is no effect, 100 is complete control) (pigweed; Postemergence, 500 g ai/ha) | Plant response rating, Pigweed (pigweed; [11]) | Plant response rating, Rice (rice) | Plant response rating, Corn (corn; [12]) | Corn plant response rating (0 to 100 scale, 0 is no effect, 100 is complete control) (corn; 500 g ai/ha) | Plant response rating, Kochia (kochia; [9]) | Plant response rating, Kochia (kochia; [10]) | Kochia plant response rating (0 to 100 scale, 0 is no effect, 100 is complete control) (kochia; Postemergence, 500 g ai/ha) | Plant response rating, Kochia (kochia; [11]) | Plant response rating, Galium (galium; [12]) | Galium plant response rating (0 to 100 scale, 0 is no effect, 100 is complete control) (galium; 500 g ai/ha) | Plant response rating, Ryegrass, Italian (ryegrass, Italian; [9]) | Plant response rating, Ryegrass, Italian (ryegrass, Italian; [10]) | Ryegrass, Italian plant response rating (0 to 100 scale, 0 is no effect, 100 is complete control) (ryegrass, Italian; Postemergence, 500 g ai/ha) | Plant response rating, Ryegrass, Italian (ryegrass, Italian; [11]) | Plant response rating, Wheat (wheat; [12]) | Wheat plant response rating (0 to 100 scale, 0 is no effect, 100 is complete control) (wheat; 500 g ai/ha) | Plant response rating, Ragweed (ragweed; [9]) | Plant response rating, Ragweed (ragweed; [10]) | Ragweed plant response rating (0 to 100 scale, 0 is no effect, 100 is complete control) (ragweed; Postemergence, 500 g ai/ha) | Plant response rating, Ragweed (ragweed; [11]) | Plant response rating, Blackgrass (blackgrass; [12]) | Blackgrass plant response rating (0 to 100 scale, 0 is no effect, 100 is complete control) (blackgrass; 500 g ai/ha) | Plant response rating, Sedge, Umbrella (sedge, umbrella)
30: Plant response rating, Barnyardgrass (barnyardgrass [1]) | Plant response rating, Barnyardgrass (barnyardgrass [2]; [10]) | Plant response rating, Barnyardgrass (barnyardgrass [2]; [13]) | Plant response rating, Foxtail, Giant (giant foxtail; [9])
20: Plant response rating, Barnyardgrass (barnyardgrass [2]; [9]) | Plant response rating, Foxtail, Giant (giant foxtail; [10])
80: Barnyardgrass plant response rating (0 to 100 scale, 0 is no effect, 100 is complete control) (barnyardgrass [2]; Postemergence, 500 g ai/ha)
60: Plant response rating, Ducksalad (ducksalad)
50: Foxtail, Giant plant response rating (0 to 100 scale, 0 is no effect, 100 is complete control) (giant foxtail; Postemergence, 500 g ai/ha)
90: Plant response rating, Foxtail, Giant (giant foxtail; [11])

O=C1NCC(c2ccc(Cl)cc2)C1C(=O)Nc1ccccc1Cl (stereo not drawn) [Compound 220]
80: Barnyardgrass plant response rating (0 to 100 scale, 0 is no effect, 100 is complete control) (barnyardgrass [2]; Postemergence, 500 g ai/ha) | Plant response rating, Barnyardgrass (barnyardgrass [2]; [6]) | Plant response rating, Foxtail, Giant (giant foxtail; [9]) | Foxtail, Giant plant response rating (0 to 100 scale, 0 is no effect, 100 is complete control) (giant foxtail; Postemergence, 500 g ai/ha)
0: Plant response rating, Pigweed (pigweed; [9]) | Plant response rating, Pigweed (pigweed; [14]) | Pigweed plant response rating (0 to 100 scale, 0 is no effect, 100 is complete control) (pigweed; Postemergence, 500 g ai/ha) | Plant response rating, Barnyardgrass (barnyardgrass [1]) | Plant response rating, Rice (rice) | Plant response rating, Corn (corn; [15]) | Plant response rating, Kochia (kochia; [9]) | Plant response rating, Kochia (kochia; [14]) | Plant response rating, Galium (galium; [15]) | Plant response rating, Ryegrass, Italian (ryegrass, Italian; [9]) | Plant response rating, Ryegrass, Italian (ryegrass, Italian; [14]) | Plant response rating, Wheat (wheat; [15]) | Plant response rating, Ragweed (ragweed; [9]) | Plant response rating, Ragweed (ragweed; [14]) | Ragweed plant response rating (0 to 100 scale, 0 is no effect, 100 is complete control) (ragweed; Postemergence, 500 g ai/ha) | Plant response rating, Ragweed (ragweed; [6]) | Plant response rating, Blackgrass (blackgrass; [15]) | Plant response rating, Sedge, Umbrella (sedge, umbrella)
30: Galium plant response rating (0 to 100 scale, 0 is no effect, 100 is complete control) (galium; 500 g ai/ha) | Plant response rating, Ryegrass, Italian (ryegrass, Italian; [6]) | Plant response rating, Barnyardgrass (barnyardgrass [2]; [9])
100: Plant response rating, Ducksalad (ducksalad)
50: Plant response rating, Foxtail, Giant (giant foxtail; [14])
40: Kochia plant response rating (0 to 100 scale, 0 is no effect, 100 is complete control) (kochia; Postemergence, 500 g ai/ha) | Plant response rating, Kochia (kochia; [6]) | Plant response rating, Barnyardgrass (barnyardgrass [2]; [14]) | Blackgrass plant response rating (0 to 100 scale, 0 is no effect, 100 is complete control) (blackgrass; 500 g ai/ha)
20: Plant response rating, Pigweed (pigweed; [6]) | Corn plant response rating (0 to 100 scale, 0 is no effect, 100 is complete control) (corn; 500 g ai/ha) | Ryegrass, Italian plant response rating (0 to 100 scale, 0 is no effect, 100 is complete control) (ryegrass, Italian; Postemergence, 500 g ai/ha) | Wheat plant response rating (0 to 100 scale, 0 is no effect, 100 is complete control) (wheat; 500 g ai/ha)
90: Plant response rating, Foxtail, Giant (giant foxtail; [6])

Cc1ccc(C2CNC(=O)C2C(=O)Nc2ccccc2F)cc1F (racemic) [Compound 144]
65: Plant response rating, Barnyardgrass (barnyardgrass [1])
70: Galium plant response rating (0 to 100 scale, 0 is no effect, 100 is complete control) (galium; 500 g ai/ha) | Foxtail, Giant plant response rating (0 to 100 scale, 0 is no effect, 100 is complete control) (giant foxtail; Postemergence, 500 g ai/ha)
100: Plant response rating, Ducksalad (ducksalad)
30: Blackgrass plant response rating (0 to 100 scale, 0 is no effect, 100 is complete control) (blackgrass; 500 g ai/ha)
40: Ryegrass, Italian plant response rating (0 to 100 scale, 0 is no effect, 100 is complete control) (ryegrass, Italian; Postemergence, 500 g ai/ha) | Plant response rating, Foxtail, Giant (giant foxtail; [10])
0: Plant response rating, Pigweed (pigweed; [9]) | Plant response rating, Pigweed (pigweed; [10]) | Pigweed plant response rating (0 to 100 scale, 0 is no effect, 100 is complete control) (pigweed; Postemergence, 500 g ai/ha) | Plant response rating, Pigweed (pigweed; [11]) | Plant response rating, Rice (rice) | Plant response rating, Corn (corn; [12]) | Plant response rating, Kochia (kochia; [9]) | Plant response rating, Kochia (kochia; [10]) | Kochia plant response rating (0 to 100 scale, 0 is no effect, 100 is complete control) (kochia; Postemergence, 500 g ai/ha) | Plant response rating, Kochia (kochia; [11]) | Plant response rating, Ryegrass, Italian (ryegrass, Italian; [9]) | Plant response rating, Ryegrass, Italian (ryegrass, Italian; [10]) | Plant response rating, Wheat (wheat; [12]) | Wheat plant response rating (0 to 100 scale, 0 is no effect, 100 is complete control) (wheat; 500 g ai/ha) | Plant response rating, Ragweed (ragweed; [9]) | Plant response rating, Ragweed (ragweed; [10]) | Ragweed plant response rating (0 to 100 scale, 0 is no effect, 100 is complete control) (ragweed; Postemergence, 500 g ai/ha) | Plant response rating, Ragweed (ragweed; [11]) | Plant response rating, Blackgrass (blackgrass; [12]) | Plant response rating, Sedge, Umbrella (sedge, umbrella)
10: Plant response rating, Galium (galium; [12])
60: Plant response rating, Foxtail, Giant (giant foxtail; [9])
80: Plant response rating, Foxtail, Giant (giant foxtail; [11])
20: Corn plant response rating (0 to 100 scale, 0 is no effect, 100 is complete control) (corn; 500 g ai/ha) | Plant response rating, Ryegrass, Italian (ryegrass, Italian; [11])
90: Plant response rating, Barnyardgrass (barnyardgrass [2]; [9]) | Plant response rating, Barnyardgrass (barnyardgrass [2]; [10]) | Barnyardgrass plant response rating (0 to 100 scale, 0 is no effect, 100 is complete control) (barnyardgrass [2]; Postemergence, 500 g ai/ha) | Plant response rating, Barnyardgrass (barnyardgrass [2]; [13])
